Test results reported in US20180186796A1, “COMPOUNDS AND USES THEREOF” (LEAD DISCOVERY SIENA S.R.L., priority 2014, published 2018).
In brackets after ≈: the same amount, converted by molar mass.

Tests used:
[1] = Microsomal stability assay
U87 cells [2] = assay: Orthotopic mouse model of GBM; type: in vivo, mice; conditions: 50 mg/kg three times per week for 4 weeks
Procedure: Survival curves (days) of orthotopic mouse model of GBM.
Male CD1 nude mice (Charles River, Milan, Italy) were maintained under the guidelines established by University of L'Aquila, Medical School and Science and Technology School Board Regulations, complying with the Italian government regulations for the use of laboratory animals. Before any invasive manipulation, mice were anesthetized with a mixture of ketamine (25 mg/ml)/xylazine (5 mg/ml). Tumor grafts were obtained by injecting with a Hamilton syringe mounted on a stereotactic instrument, 2*10^3 U87 cells resuspended in 2 microL PBS (David Kopf Instruments, CA, USA). The cells were injected after the exposition of periosteal cranic site and the drimming of a 1 mm diameter hole localized at 4 mm from striatum and with a depth of 4 mm. The wound was treated with antibiotics and was surgically sutured.

U87 cells [3] = assay: Low density growth assay; type: cell-based, human; conditions: 4Gy plus 1 μM or 10 μM Si306, 15 days
Procedure: U87 cells capacity for growth at clonal density, was evaluated by plating cells at density of 10 cells/cm^2 in 10% fetal bovine supplemented DMEM. After 2 weeks of culture, adherent cells were fixed with cold methanol, washed with PBS/BSA and air-dried. Adherent cells were stained with 0.5% crystal violet for 15 minutes at room temperature. The stained colonies were photomicrographed and analyzed by number and size with the public domain software ImageJ (by Wayne Rasband, http://rsb.info.nih.gov/ij/). Mean and SD values of at least three different experiments are shown.

[4] = In vivo pharmacokinetics / biodistribution; set-up: species or system mice; conditions: administered compound itself, 50 mg/Kg i.p., BALB/C mice
Procedure: The animal protocols used were reviewed and approved by the Animal Care and Ethics Committee of the Universita{grave over ( )} degli Studi di Siena, Italy. Male BALB/C mice (weight 20-30 g) were obtained from Charles River (Milan, Italy). […] The blood, previously heparinized, was centrifuged at 4000 rpm for 20 minutes to separate the plasma fraction and then 500 μl were collected in a test tube. […] Samples were centrifuged at 4000 rpm for 20 minutes, the supernatant was recovered, dried under vacuum and analyzed by LC-UV-MS. Brain was homogenized using a glass/glass Potter-Elvehjem homogenizer in presence of Tris-HCl buffer (50 mM) and compounds were recovered using 7 mL of ACN then treated as previously described for blood samples.

U87 cells [5] = assay: Proliferation assay on U87 cells; type: cell-based, human
Procedure: U87 and U251 cells were purchased from European Collection of Cell Cultures (ECACC, Salisbury, UK) and were cultured in DMEM medium supplemented with 10% Foetal Bovine Serum. In order to determine antiproliferative effect of drugs tumor cells were seeded at 2×10^5 cells/ml density and treated with compounds at indicated concentrations. The cultures were maintained at 37° C. in 5% v/v CO2 for 72 h. Cell number and viability were evaluated by Trypan blue exclusion test. Viable cells were expressed as percentage respect to cells treated with vehicle (=100%). Mean and SD values of at least three different experiments are shown.
U87 and U251 cells were purchased from European Collection of Cell Cultures (ECACC, Salisbury, UK) and were cultured in DMEM medium supplemented with 10% Foetal Bovine Serum. In order to determine antiproliferative effect of drugs tumor cells were seeded at 2×10^5 cells/ml density and treated with compounds at indicated concentrations. The cultures were maintained at 37° C. in 5% v/v CO2 for 72 h. Cell number and viability were evaluated by Trypan blue exclusion test. Viable cells were expressed as percentage respect to untreated cells (=100%/). Mean and SD values of at least three different experiments are shown.

[6] = test system: SH-SY5Y neuroblastoma cells; assay: SH-SY5Y xenograft mouse model; type: in vivo, mice
Procedure: Male CD1 nude mice (Charles River, Milan, Italy) were maintained under the guidelines established by the inventors' Institution (University of L'Aquila, Medical School and Science and Technology School Board Regulations, complying with the Italian government regulation n. 116 Jan. 27 1992 for the use of laboratory animals). Before any invasive manipulation, mice were anesthetized with a mixture of ketamine (25 mg/mL)/xylazine (5 mg/mL). Tumor grafts were obtained by injecting s.c. 1×10^6 SH-SY5Y cells in 100 μL of 12 mg/mL Matrigel (Becton Dickinson, Franklin Lakes, N.J., USA). Tumor growth was monitored daily by measuring the average tumor diameter. The tumor volume was expressed in mm^3 according to the formula 4/3πr^3.

PAMPA, BBB permeability = conditions: Membrane Retention, BBB
SH-SY5Y cells = assay: Cell cycle analysis; type: cell-based, human
Procedure: Cells (SH-SY5Y) were seeded in 60-mm petri dishes at a density of 3×10^5. After treatment and subsequent incubation for 24 h at 37° C. and 5% CO2 in humidified atmosphere, harvested cells were washed and fixed overnight with 70% ethanol. Then, ethanol was removed by centrifugation and the cells resuspended in PBS, stained with 50 μg/mL propidium iodide (PI) at 4° C. for 30 min in the dark. Stained cells were analyzed by Tali image based cytometer (Life Technologies, Carlsbad, Calif., USA) counting 20 fields for sample and exported fcs raw data were elaborated by Flowing software (v. 2.5.0, by Perttu Terho, University of Turku, Finland).

Recombinant human Abl = target: T1, Recombinant human Abl (Homo sapiens, UniProt P00519); assay: Enzymatic assay on isolated Abl; type: biochemical; conditions: mean of at least two experiments
T1 construct: purchased Upstate
Procedure: Recombinant human Abl was purchased from Upstate.
Activity was measured in a filter binding assay using an Abl specific peptide substrate (Abtide, Upstate).

U87 cells [7] = assay: U87 xenograft; type: in vivo, mice
Procedure: Male CD1 nude mice (Charles River, Milan, Italy) were maintained under the guidelines established by University of L'Aquila, Medical School and Science and Technology School Board Regulations, complying with the Italian government regulations for the use of laboratory animals. Before any invasive manipulation, mice were anesthetized with a mixture of ketamine (25 mg/ml)/xylazine (5 mg/ml). Tumor grafts were obtained by injecting s.c. 1×10^6 U87 cells in 100 μL of 12 mg/mL Matrigel (Becton Dickinson, Franklin Lakes, N.J., USA). Mice were divided in four groups: treated with vehicle, treated with radiotherapy, treated with Si306 and treated with Si306 in combination with radiotherapy. […] At the endpoint, tumors were recovered and weighted. The tumor xenograft was irradiated once with 4Gy dose at first sign of palpable tumor mass.
Antibodies were purchased from Cell Signaling (Cell Signaling Technology, Inc.).

T1 sequence (P00519 whole entry): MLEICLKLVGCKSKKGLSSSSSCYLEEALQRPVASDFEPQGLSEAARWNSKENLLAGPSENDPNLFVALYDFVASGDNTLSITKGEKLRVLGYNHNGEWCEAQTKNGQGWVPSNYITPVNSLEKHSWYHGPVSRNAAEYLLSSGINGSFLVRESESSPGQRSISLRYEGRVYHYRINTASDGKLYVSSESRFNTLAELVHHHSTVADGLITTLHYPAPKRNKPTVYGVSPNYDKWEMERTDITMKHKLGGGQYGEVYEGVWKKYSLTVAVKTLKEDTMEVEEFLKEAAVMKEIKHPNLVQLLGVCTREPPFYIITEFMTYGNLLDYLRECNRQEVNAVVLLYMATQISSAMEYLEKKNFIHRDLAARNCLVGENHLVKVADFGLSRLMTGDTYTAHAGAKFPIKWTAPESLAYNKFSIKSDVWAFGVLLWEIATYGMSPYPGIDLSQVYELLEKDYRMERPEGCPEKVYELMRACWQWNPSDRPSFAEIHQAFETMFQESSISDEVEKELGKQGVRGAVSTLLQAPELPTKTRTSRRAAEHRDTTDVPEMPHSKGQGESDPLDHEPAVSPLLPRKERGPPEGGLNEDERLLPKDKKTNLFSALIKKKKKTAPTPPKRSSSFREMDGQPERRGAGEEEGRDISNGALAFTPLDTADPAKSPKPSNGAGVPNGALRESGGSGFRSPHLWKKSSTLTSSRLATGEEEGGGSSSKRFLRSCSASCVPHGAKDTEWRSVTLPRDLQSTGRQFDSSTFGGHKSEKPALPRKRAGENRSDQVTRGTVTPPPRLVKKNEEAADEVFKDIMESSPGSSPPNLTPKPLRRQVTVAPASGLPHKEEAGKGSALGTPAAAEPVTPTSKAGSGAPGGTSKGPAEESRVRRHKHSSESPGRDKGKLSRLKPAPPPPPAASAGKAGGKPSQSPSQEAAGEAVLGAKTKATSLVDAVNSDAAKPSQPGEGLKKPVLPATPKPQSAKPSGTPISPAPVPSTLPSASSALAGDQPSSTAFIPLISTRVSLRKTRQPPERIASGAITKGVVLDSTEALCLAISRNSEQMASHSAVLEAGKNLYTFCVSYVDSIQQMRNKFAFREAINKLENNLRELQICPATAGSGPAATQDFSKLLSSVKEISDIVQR
Procedure for Water solubility assay: Each solid compound (1 mg) was added to 1 mL of water. […] The suspensions were filtered through a 0.45 μm nylon filter (Acrodisc), and the solubilized compound determined by LC-MS-MS assay. For each compound the determination was performed in triplicate. […] The flow rate was 0.2 mL min-^−1 and injection volume was 5 μL. The instrument operated in positive mode and parameters were: detector 1850 V, drying gas pressure 25.0 psi, desolvation temperature 300.0° C., nebulizing gas 40.0 psi, needle 5000 V and shield 600 V. Nitrogen was used as nebulizer gas and drying gas.
Solid compound (1 mg) was added to 1 mL of water. […] The suspensions were filtered through a 0.45-μm nylon filter (Acrodisc), and the solubilised compound determined by LC-UV-MS assay. The determination was performed in triplicate.
Chromatographic analysis was performed with the method above reported and quantification of compounds was made by comparison with apposite calibration curves realized with standard solutions in methanol.

With `ClC(Cn1ncc2c(Nc3cccc(Br)c3)nc(SCCN3CCOCC3)nc21)c1ccccc1` (stereo not shown) [Si306, N-(3-Bromophenyl)-1-(2-chloro-2-phenylethyl)-6-[(2-morpholin-4-ylethyl)thio]-1H-pyrazolo[3,4-d]pyrimidin-4-amine] the “Metabolic Stab. %” value ([1]; percentage of unmodified drug, Table 8) was 97.2%, the “Metabolic Stab.” value ([1]; percentage of unmodified parent drug, human liver microsomes 60 min) was 96% and the “survival of mice respect to control group” value (U87 cells [2]) was “significant ability in prolonging survival”. For the same compound, the “number of colonies, combination with radiotherapy” value (U87 cells [3]) was “reduced significantly the number of colonies”, the “Quantity of Compound, BLOOD” value ([4]; 30′) was 10.2 ± 4.82 nmol of compound/g of tissue and the “Quantity of Compound, BLOOD” value ([4]; 4 h) was 2.6 ± 1.31 nmol of compound/g of tissue. For the same compound, the “Quantity of Compound, BLOOD” value ([4]; 8 h) was 2.4 ± 0.29 nmol of compound/g of tissue, the “Quantity of Compound, BLOOD” value ([4]; 24 h) was 1.1 ± 0.65 nmol of compound/g of tissue and the “Quantity of Compound, BRAIN” value ([4]; 15′) was 0.3 ± 0.18 nmol of compound/g of tissue. The “Quantity of Compound, BRAIN” value ([4]; 24 h) was 2.3 ± 0.70 nmol of compound/g of tissue, the “reduction of the total cell number vs control” value (U87 cells [5]; U87, 5 μM, 72 h) was “about 50%” and the dead cells (U87 cells [5]; U87, 30 μM, 72 h) was “more than 80%”. For the same compound, the “antiproliferative effect in combination with mitomycin C” value (U87 cells [5]; U87, 72 h, 1 μM Si306 plus increasing mitomycin C) was “synergic antiproliferative effect”, the tumour growth inhibition ([6]; 50 mg/kg) was “significantly inhibited” and the “signs of distress or weight loss” value ([6]; 50 mg/kg daily oral) was “did not shown signs of distress or weight loss”. For the same compound, the “reduction in mean tumor volume compared to placebo” value ([6]; 50 mg/kg daily oral, 60 days) was “more than 50%”, the “PAMPA BBB (MR %)” value (PAMPA, BBB permeability) was “(41.0) %” and the “apoptosis, treated cells” value (SH-SY5Y cells; 10 μM) was “about 50%”. For the same compound, the “accumulation of cells in the G1 phase of cell cycle” value (SH-SY5Y cells; 0.1-10 μM, starting from 0.1 μM) was “significant and dose-dependent accumulation”, the Ki (Recombinant human Abl) was 0.12 µM and the “H2O Solubility” value (Water solubility assay; Table 6) was 3.7 µg/mL. For the same compound, the “H2O Sol.” value (Water solubility assay; Table 8, 20° C., 24 h) was 3.70 µg/mL, the solubility at 24 h (Water solubility assay; water, 20 °C, thermodynamic from solid) was 6.61 µM (≈ 3.79 µg/mL) and the “reduction of tumor weight vs CTR” value (U87 cells [7]; 50 mg/kg every other day for 30 days, alone) was “about 50%”. The “myofibroblast content (alpha-SMA expression) in tumor masses” value (U87 cells [7]; immunohistochemistry of excised tumors) was “reduction of myofibroblast content”.
